Reference: US12569467B2, “Small molecules that treat or prevent viral infections” (priority 2022, dated 2026)

Legend:
[1] = system: SARS-CoV-2 variant Delta Spike protein pseudotyped lentiviral particles; experiment: microbe, parasite or virus in culture; type: cell-based, SARS-CoV-2 Delta variant; settings: Severe acute respiratory syndrome coronavirus 2, HEK293, read-out: EC50, inhibition of infection of Delta variant
[2] = system: spike protein of Omicron variant; type: binding, SARS-CoV2 Omicron variant
[3] = system: SARS-CoV-2 variant Omicron Spike protein pseudotyped lentiviral particles; experiment: microbe, parasite or virus in culture; type: cell-based, SARS-CoV-2 Omicron variant; settings: Severe acute respiratory syndrome coronavirus 2, HEK293, read-out: EC50, inhibition of infection of Omicron variant
[4] = system: spike protein of Delta variant; type: binding, SARS-CoV2 Delta variant

O=C1Nc2ccccc2/C1=C\c1ccc(-c2cc(C(F)(F)F)cc(C(F)(F)F)c2)o1 [CD04872SC, 3-({5-[3,5-di(trifluoromethyl)phenyl]-2-furyl}methylidene)indolin-2-one]
EC50 [1]: 152 µM | thermal stability change in presence of compound [2]: same stabilizing tendency | EC50 [3]: 308 µM | thermal stability change in presence of compound [4]: same stabilizing tendency
